Results published in US8637467B2, “Pharmaceutical being used for treating cancer and fibrosis disease and the composition and uses thereof” (Wuxi MTLH Biotechnology Co., Ltd., priority 2008, dated 2014).

Key:
[1] = test system: human breast cancer MDA-MB-435; assay: Human breast cancer MDA-MB-435 xenograph nude mice; format: in vivo; settings: positive control, 20 mg/kg, once a week, 4 weeks
Experimental: (§1) Experimental animals: Female BALB/cA nude mice, age 35-40 days, weight 18-22 g, provided by Shanghai Silaike Experimental Animal Co. Ltd., certificate number: SOCK (Shanghai) 2007-0005.
(§2) The tumor of xenograph nude mice grew to 100˜300 mm^3. Tumor mice were divided into different groups for drug testing. In the experiment below, there were 12 nude mice in negative control group, and 6 nude mice in the group with tested drug. Tumor diameter was measured three times each week, and mice weight was measured at the same time.
(§3) T/C (relative tumor inhibition rate) % was calculated as below: • (1) tumor volume, TV, calculated as below: TV=½×a×b^2 • A and b are length and width. • (2) relative tumor volume, RTV, calculated as below: RTV=TVt/TV0. • TV0 ? is tumor volume at the beginning of drug use (d0), TVt is tumor volume at later time point. • (3) relative tumor inhibition rate T/C (%), calculate as below:
(§4) [formula] TRTV: treatment group RTV; CRTV: negative control RTV
Peptide SEQ ID No:1 was given through tail vein (IV), at dosing of 2 mg/kg, 1 mg/kg, 0.5 mg/kg, 6 times a week. Docetaxol was positive control, at dosing of 20 mg/kg, once a week. Negative control was given saline solution. The xenograph nude mice were treated for 4 weeks.

human lung cancer A549 = assay: Human lung cancer A549 xenograph nude mice; format: in vivo; settings: positive control, 20 mg/kg, once a week, 3 weeks
Experimental: as §1, §2, §3, §4
Peptide SEQ ID No:1 was given through tail vein (IV), at dosing of 0.5 mg/kg, 0.25 mg/kg, and 0.125 mg/kg, 6 times a week. Docetaxol was positive control, at dosing of 20 mg/kg, once a week. Negative control was given saline solution. The xenograph nude mice were treated for 3 weeks.

liver cancer (H22) = assay: Xenograph liver cancer nude mice model (H22); format: in vivo; settings: H22, positive control, 10 mg/kg
Experimental: as §1, §2, §3, §4

[2] = test system: human stomach cancer SGC-7901; assay: Human stomach cancer SGC-7901 xenograph nude mice; format: in vivo; settings: positive control, 25 mg/kg, once a week, 3 weeks
Experimental: as §1, §2, §3, §4
Peptide SEQ ID No:1 was given through tail vain (IV), at dosing of 1 mg/kg, 0.5 mg/kg, 0.25 mg/kg, 0.125 mg/kg, and 0.0625 mg/kg, 6 times a week. 5-FU was positive control, at dosing of 25 mg/kg, once a week. Negative control was given saline solution. The xenograph nude mice were treated for 3 weeks.

[3] = test system: Rat CC14 liver damage model; assay: Rat CC14 liver damage model (chronic liver fibrosis); format: in vivo, SD rat; design: Liver parameters: unit not given here; settings: Gan-li-xin 25 mg/kg iv, once a day for 2 weeks from week 5
Experimental: To evaluate the protective effect of peptide SEQ ID NO:1 on liver damage, we used chronic liver fibrosis model (rat CC14 model) for efficacy evaluation.
Rat CC14 liver damage model
(1) Control group: saline, sc, 2 ml/kg, 10 rats
(2) model group: 40% CC14, sc, 2 ml/kg, 17 rats
(3) Gan-li-xin group: 25 mg/kg, iv, 10 ml/kg, 15 rats
(4) Prevention, high dose group: 50 μg peptide SEQ ID NO:1/kg, iv, 10 ml/kg, 17 rats
(5) Prevention, low dose group: 10 μg peptide SEQ ID NO:1/kg, iv, 10 ml/kg, 17 rats
(6) Treatment, high dose group: 100 μg peptide SEQ ID NO:1/kg, iv, 10 ml/kg, 17 rats
(7) Treatment, high dose group: 20 μg peptide SEQ ID NO:1/kg, iv, 10 ml/kg, 17 rats
Except for control group, inject 40% CC14 subcutaneously twice (Tuesday, and Friday) every week in Group (2) to (6), drug volume (0.2 ml/100 g, the first time 0.5 ml/100 g). CC14 Model construction is 6 weeks. Parallel to the model construction, inject intravenously peptide SEQ ID NO:1 at 50 μg/kg and 10 μg/kg in group (4) and (5), respectively, once a day for 6 weeks. For Group (3), (6), and (7), starting from week 5, inject Gan-li-xin 25 mg/kg, peptide SEQ ID NO:1 at 100 μg/kg and 20 μg/kg, respectively, once a day, continuously for 2 weeks.
All rats were weighed once a week during model construction and drug injection. According to weight, the dose of drugs is adjusted. 24 hours after the last time of CC14 injection, liver weight parameters were examined.
Blood was extracted from femoral artery and serum was separated. The following parameters were examined: serum alanine aminotransferase (ALT), aspartate aminotransferase (AST), Bilirubin (TB), Alkaline phosphatase (ALP), total protein (TP), albumin (ALB), globulin (G), albumin/globulin ratio (A/G), glucose (GLU), total cholesterol (TCH), triglyceride (TG).
Liver homogenate: to examine cholesterol (TCH), triglyceride (TG), alanine aminotransferase (ALT), and aspartate aminotransferase (AST).
[…], dry at 110 C, examine Hydroxyproline (HPA).
Part of the liver is fixed in formalin for histology examination.

For `CC(=O)O[C@@]12CO[C@@H]1C[C@H](O)[C@@]1(C)C(=O)[C@H](O)C3=C(C)[C@@H](OC(=O)[C@H](O)[C@@H](NC(=O)OC(C)(C)C)c4ccccc4)C[C@@](O)([C@@H](OC(=O)c4ccccc4)[C@H]21)C3(C)C` [docetaxel, reference compound], which “T/C(%) relative tumor inhibition rate” value [1] is on record?
The value was 16.51%.

And the “T/C(%) relative tumor inhibition rate” value (human lung cancer A549)?
The value was 18.60%.

With `CC(=O)O[C@H]1C(=O)[C@@]2(C)[C@H]([C@H](OC(=O)c3ccccc3)[C@]3(O)C[C@H](OC(=O)[C@H](O)[C@@H](NC(=O)c4ccccc4)c4ccccc4)C(C)=C1C3(C)C)[C@]1(OC(C)=O)CO[C@@H]1C[C@@H]2O` [Taxol, reference compound] as the compound, how does the “inhibition rate, tumor” value (liver cancer (H22)) read?
The value was about 67.8%.

With `O=c1[nH]cc(F)c(=O)[nH]1` [Peptide 5-FU, reference compound] as the compound, how does the “T/C(%) relative tumor inhibition rate” value [2] read?
Its value is 68.71%.

With `CC1(C)[C@@H](O[C@H]2O[C@H](C(=O)O)[C@@H](O)[C@H](O)[C@H]2O[C@@H]2O[C@H](C(=O)O)[C@@H](O)[C@H](O)[C@H]2O)CC[C@]2(C)[C@H]3C(=O)C=C4[C@@H]5C[C@@](C)(C(=O)O)CC[C@]5(C)CC[C@@]4(C)[C@]3(C)CC[C@@H]12.N.N` [Gan-li-xin, Diammonium glycyrrhizinate, reference compound] as the compound, how does the “ALB (albumin), serum” value [3] read?
Its value is 17.9 ± 2.5 g/L.

And the “ALP (alkaline phosphatase), serum” value [3]?
Its value is 351.6 ± 134.1 IU/L.

What about the “ALT (alanine aminotransferase), serum” value [3] of the same compound?
Its value is 73.6 ± 25 IU/L.

What about the “AST (aspartate aminotransferase), serum” value [3] of the same compound?
Its value is 253.3 ± 69.3 IU/L.

And the “Bilirubin, serum” value [3]?
The value was 3.3 ± 0.6 µmol/L.

And the “GLU (glucose), serum” value [3]?
The value was 5.4 ± 0.7 mmol/L.

And the Liver parameters [3]?
Its Liver parameters is 4.4 ± 0.6.

And the Liver weight [3]?
The Liver weight was 11.6 ± 3.5 g.

What about the “TCH (total cholesterol), serum” value [3] of the same compound?
The value was 1.7 ± 0.5 mmol/L.

What about the “TG (triglyceride), serum” value [3] of the same compound?
The value was 0.7 ± 0.3 mmol/L.

What about the “TP (total protein), serum” value [3] of the same compound?
The value was 64.8 ± 5.4 g/L.

What about the “hydroxyproline amount in rat liver” value [3] of the same compound?
The value was 0.191 ± 0.038 ug/mg wet weight.
